Assays:
[1] = target: T1, human Patched (hPtc) expressed in S. cerevisiae (Homo sapiens, UniProt Q13635); assay: Screening test 1: resistance of Patched-expressing yeast to doxorubicin (yeast growth, absorbance 600 nm); assay type: cell-based; conditions: 10 μg/mL fraction or purified compound, 10 μM doxorubicin
T1 construct: MAP; expressed in transfected cells; host or cells: Saccharomyces cerevisiae K699
T1 sequence (Q13635 1-1447): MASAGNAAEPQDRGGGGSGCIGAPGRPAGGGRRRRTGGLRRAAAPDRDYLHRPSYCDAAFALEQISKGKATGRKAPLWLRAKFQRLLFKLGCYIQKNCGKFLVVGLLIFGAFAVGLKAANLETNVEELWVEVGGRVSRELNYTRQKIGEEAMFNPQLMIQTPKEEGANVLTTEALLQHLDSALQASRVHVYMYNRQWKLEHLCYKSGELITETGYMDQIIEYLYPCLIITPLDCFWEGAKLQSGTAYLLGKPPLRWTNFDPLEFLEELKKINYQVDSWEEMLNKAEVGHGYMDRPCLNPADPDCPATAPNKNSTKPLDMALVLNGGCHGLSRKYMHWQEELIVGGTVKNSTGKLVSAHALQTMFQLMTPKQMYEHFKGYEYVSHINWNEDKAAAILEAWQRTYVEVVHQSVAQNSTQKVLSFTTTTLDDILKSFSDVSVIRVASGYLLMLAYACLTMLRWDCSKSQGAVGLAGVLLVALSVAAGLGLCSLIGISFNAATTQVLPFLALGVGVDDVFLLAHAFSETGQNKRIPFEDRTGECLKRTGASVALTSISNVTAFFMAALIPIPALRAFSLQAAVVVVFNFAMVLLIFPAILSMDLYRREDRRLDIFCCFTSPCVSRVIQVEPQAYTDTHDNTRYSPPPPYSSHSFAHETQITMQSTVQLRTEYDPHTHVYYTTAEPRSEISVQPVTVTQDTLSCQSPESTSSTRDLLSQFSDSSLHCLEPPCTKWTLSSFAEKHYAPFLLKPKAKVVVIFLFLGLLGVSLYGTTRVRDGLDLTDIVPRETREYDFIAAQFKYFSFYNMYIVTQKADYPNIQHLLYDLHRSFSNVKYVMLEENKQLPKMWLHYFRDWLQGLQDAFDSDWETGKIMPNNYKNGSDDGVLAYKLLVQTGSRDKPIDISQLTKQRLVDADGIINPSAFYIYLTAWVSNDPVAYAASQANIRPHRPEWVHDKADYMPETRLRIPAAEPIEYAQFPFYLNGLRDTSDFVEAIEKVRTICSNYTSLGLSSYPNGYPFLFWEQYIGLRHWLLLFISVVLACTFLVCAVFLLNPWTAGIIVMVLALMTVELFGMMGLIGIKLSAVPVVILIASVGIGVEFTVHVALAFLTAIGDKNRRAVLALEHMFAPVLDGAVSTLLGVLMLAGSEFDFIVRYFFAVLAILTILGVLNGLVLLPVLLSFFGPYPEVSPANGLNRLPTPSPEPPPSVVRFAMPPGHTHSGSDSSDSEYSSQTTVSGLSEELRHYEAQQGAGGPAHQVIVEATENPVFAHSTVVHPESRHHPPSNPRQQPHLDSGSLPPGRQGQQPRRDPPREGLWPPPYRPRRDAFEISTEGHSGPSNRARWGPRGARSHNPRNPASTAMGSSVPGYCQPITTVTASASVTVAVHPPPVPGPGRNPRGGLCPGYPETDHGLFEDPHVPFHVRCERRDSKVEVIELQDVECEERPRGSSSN
Procedure: A. Haliclona mucosa sponge. B. Haliclona mucosa methanolic fraction contains inhibitors of the resistance of Patched-expressing yeasts to doxorubicin. Yeast S. cerevisiae expressing hPtc were grown in 96 well plates in the presence of 10 μg/mL of the methanolic fraction of Haliclona mucosa crude extract dissolved in DMSO and in presence or not of 10 μM of doxorubicin (dxr). The growth of yeasts was measured by absorbance at 600 nm and the results shown are the mean of three independent experiments. C. Purification profile of Haliclona mucosa methanolic fraction. A preparative phenyl-hexyl HPLC column was used with a gradient starting at (47 H20: 53 ACN: 0.1 TFA) to (0 H20: 100 ACN: 0.1 TFA), flow rate: 10.0 mL/min, injection volume: 75 μl at 100 mg/mL. […] Purified compounds dissolved in DMSO were added (at 10 μg/mL) to the growth medium containing or not 10 μM dxr. The growth of yeasts was measured by absorbance at 600 nm.
S. cerevisiae expressing human Patched were grown in 10 mL of minimal medium (supplemented with 2% of glucose and amino acids cocktail without leucine) at 30° C. When the exponential phase was obtained (OD600=5-7), yeasts were precultured in the same medium to OD600=1-2. Yeasts were then diluted in rich medium containing 2% of glucose in 96-well plates. Methanolic or purified fractions (at 10 μg/mL final concentration) were added in all wells, and doxorubicin (10 μM final concentration) was added in half of the wells. Plates were incubated at 18° C. on a shaker at 1250 rpm (microtitre plate shaker SSL5 Stuart) and absorbance at 600 nm was recorded for about 72 hours.
Inventors cultured yeast S. cerevisiae expressing human Patched in their plasma membrane as previously described (Bidet et al., 2011, 2012) in 96 well plates. Methanolic fraction of Haliclona mucosa crude extracts was prepared, dissolved in DMSO at 10mg/mL and added at a final concentration of 10 μg/mL to the yeast culture medium supplemented or not with doxorubicin (dxr). As previously reported (Bidet et al., 2012), human Patched confers a resistance to growth inhibition by dxr, an […] used to treat a wide range of cancers (FIG. 2B).

[2] = target: T2, human Patched (hPtc) expressed in yeasts (Homo sapiens, UniProt Q13635); assay: Resistance of hPtc-expressing yeasts to other chemotherapeutic agents (yeast growth, absorbance 600 nm); assay type: cell-based; conditions: 10 μM paniceins; for inhibition of the resistance of yeasts to vemurafenib: 10 μM vemurafenib; for inhibition of the resistance of yeasts to cisplatine: 50 μM cisplatine; for inhibition of the resistance of yeasts to dacarbazine: 2 mM dacarbazine
T2 construct: MAP; expressed in transfected cells; host or cells: Saccharomyces cerevisiae K699
T2 sequence (Q13635 1-1447): T1 sequence (Q13635 1-1447)
Procedure: Paniceins were added at a final concentration of 10 μM to the yeast growth medium containing 2 mM of dacarbazine (A), 50 μM of cisplatine (B), or 10 μM of vemurafenib (C). The growth of hPtc-expressing-yeasts was measured by absorbance at 600 nm.
The expression of human Patched in yeasts confers to these yeasts the ability to grow in presence of other chemotherapeutic agents currently used to treat melanoma such as dacarbazine or cisplatine.

SMILES | inhibition of the resistance (growth) of hPtc-expressing yeast in presence of dxr [1] | inhibition of the resistance of yeasts to vemurafenib [2] | inhibition of the resistance of yeasts to cisplatine [2] | inhibition of the resistance of yeasts to dacarbazine [2]
C/C(=C\Cc1cc(O)ccc1O)CCc1c(C)c(O)c(O)c(C=O)c1C [P2, Panicein C] | strongly inhibit | inhibits the resistance | inhibits the resistance | inhibits the resistance
C/C(=C\Cc1cc(O)ccc1O)CCc1c(C)cc(O)c(C=O)c1C [P3, Panicein B3] | strongly inhibit | inhibits the resistance | inhibits the resistance | inhibits the resistance
Cc1cc(O)c(C=O)c(C)c1CCC1(C)C=Cc2cc(O)ccc2O1 (stereo not shown) [P4, Panicein B2] | lighter |  |  | 
COc1cc(C)c(CC/C(C)=C/Cc2cc(O)ccc2O)c(C)c1C [P5, Panicein A hydroquinone] | strongly inhibit | inhibits the resistance | inhibits the resistance | inhibits the resistance
